Reference: patent US20040013643A1, “Methods for treatment of multiple sclerosis with statins” (Novlmmune S.A., priority 2000, published 2004)
Entries after “also recorded” stand apart in the source; their conditions may differ.

How the values were obtained:
[1] = system: CD40 mediated pathways; assay: Cytokine release (MCP-1, IL-6, IL-8) from endothelial cells activated by CD40L, ELISA; format: cell-based, human; settings: ECs; CD154 stimulation with statin; L-mevalonate added
Description: Cytokines assay. […] Experiments were performed in the presence of polymyxin B (1 μg/ml). Antibody binding was detected by adding substrate (R&D), and absorbance measured at 450 nm using a Dynatech plate reader. The amount of IL-6, IL-8 and MCP-I detected was calculated from a standard curve prepared with the recombinant protein. Samples were assayed in duplicates.
To investigate the functional consequences of inhibition of CD40 expression by statins on Endothelial Cells activation by CD40L, secreted cytokines were analyzed such as Interleukin-6 (IL-6), interleukin-8 (IL-8), macrophages chemoattractant protein-1 (MCP-1).

[2] = system: CD40; assay: IFN-γ induced CD40 expression on human vascular endothelial cells (Western blot, FACS); format: cell-based; settings: ECs
Description: Cell isolation and culture. Human vascular endothelial cells (ECs) were isolated from saphenous veins and mammary arteries by collagenase treatment (Worthington Biochemicals), and cultured in dishes coated with gelatin (Difco). Cells were maintained in medium 199 (1 4199; BioWhittaker) supplemented with 100 U/ml penicillin/streptomycin (BioWhittaker), 5% FCS (Gibco), 100 μg/ml heparin (Sigma) and 50 μg/ml ECGF (endothelial cell growth factor; Pel-Freez Biological). Human vascular smooth muscle (SMCs) cells were isolated from human saphenous veins and mammary arteries by explant outgrowth, and cultured in DMEM (BioWhittaker) supplemented with 1% L-glutamine (BioWhittaker), 1% penicillin/streptomycin, and 10% FCS. Both cell types were subculture following trypsinization (0.5% trypsin (Worthington Biochemicals)/0.2% EDTA (EM Science)) in P100-culture dishes (Becton Dickinson). Culture media and FCS contained less than 40 pg LPS/ml as determined by chromogenic Limulus amoebocyte-assay analysis (QLC1000; BioWhittaker).
Western blot analysis. Cells were harvested in ice-cold RIPA solubilization buffer, and total amounts of protein were determined using a bicinchoninic acid quantification assay (Pierce, Rockford, Ill.). Twenty μg of total protein/lane were separated by SDS/PAGE under reducing conditions and blotted to polyvinylidene difluoride membranes (Millipore Corp, Bedford, Mass.) using a semidry blotting apparatus (Bio-Rad, Hercules, Calif.). Blots were blocked overnight in 5% defatted dry milk/PBS/0.1% Tween, and then incubated for 1 hour at room temperature with primary antibody (1:40) (rabbit polyclonal anti-CD40 Santa Cruz, San Diego, Calif.), or mouse monoclonal anti-human P-actin (1:5000) (Phanningen) for control of loading. This was followed by a 1 hour incubation with secondary peroxidase-conjugated antibody (1:10′000), (Jackson Immunoresearch, West Grove, Pa.). All steps were performed at room temperature and in between incubation steps cells were rinsed with PBS/0.1% Tween. lmmunoreactivity was detected using the enhanced chemiluminescence detection method according to the manufacturer's instructions. (Amersharn, Ddbendorf, Switzerland), and subsequent exposure of the membranes to x-ray film. Analysis of quantification of detection was performed using AIDA software.
Flow cytometry. Cells were incubated with FITC-conjugated specific antibody (60 min, […]) and analyzed in a Becton Dickinson FACScan flow cytometer. At least 20.000 viable cells were analyzed per condition. Data were analyzed using […] software (Becton Dickinson).
Surface CD40 expression was analyzed by […] after 24 hrs.

[3] = system: MHC class II; settings: Atorvastatin, Lovastatin, Pravastatin compared; FIG. 1a
Description: Cell isolation and culture. […] Flow cytometry. […] Data were analyzed using […] software (Becton Dickinson).

Compound: L-mevalonate
- reversal of the statin effect by addition of L-mevalonate [1]: significantly reverses the process

Compound: CC(C)c1c(C(=O)Nc2ccccc2)c(-c2ccccc2)c(-c2ccc(F)cc2)n1CC[C@@H](O)C[C@@H](O)CC(=O)O [Atorvastatin]
- IFN-γ induced CD40 expression ([2]; IFN-γ 500 U/ml, 24 hrs): repressed this induction of CD40 in a dose-dependant manner; also recorded: decreases IFN-γ induced CD40 protein expression on human atheroma-associated cells in a dose-dependant manner
- concentration range over which the effect on IFN-γ induced CD40 was observed ([2]; IFN-γ 500 U/ml, 24 hrs, FIG. 7): 0.08 to 0.5 µM
- IFN-γ induced CD40 expression ([2]; IFN-γ 500 U/ml, 24 hrs, listed as atorvastatin): decreased
- effect on IFN-γ induced CD40 in the presence of L-mevalonate ([2]; with L-mevalonate): markedly reduced
- CD40 expression, treatment with statin alone ([2]; without IFN-γ): had an effect on CD40 expression
- relative potency as MHC class II repressor among the forms tested [3]: most powerful MHC class II repressor

Compound: CC[C@H](C)C(=O)O[C@H]1C[C@@H](C)C=C2C=C[C@H](C)[C@H](CC[C@@H]3C[C@@H](O)CC(=O)O3)[C@H]21 [Lovastatin]
- IFN-γ induced CD40 expression ([2]; IFN-γ 500 U/ml, 24 hrs): decreased
